IC50 data for two compounds are collected here from patent publication US7709645B2, “Pyrrolo-pyridine kinase modulators” (SGX Pharmaceuticals, Inc., priority 2004, dated 2010).

As a reminder, the IC50 is the concentration that gives 50% inhibition.

The experiment has as its target T1, MET kinase (Homo sapiens, UniProt P08581).
T1 construct: Sf9 insect cell culture expressing the kinase domain of human Met; 6x Histidine tag (TEV-cleavable) (cleaved yes); made in house; host or cells: Sf9 insect cells
Kind of experiment: Met Bioassay (luminescence-based enzyme assay, Kinase-Glo). The class given is biochemical. The conditions noted are these: 10 μM ATP. An excerpt: In addition to the c-Abl PK/LDH coupled assay (above), homogeneous luminescence-based inhibitor screening assays were developed for c-Abl, MET, AurA, and PDK1 kinases (among others). Each of these assays made use of an ATP depletion assay (Kinase-Glo™, Promega Corporation, Madison, Wis.) to quantitate kinase activity. The Kinase-Glo™ format uses a thermostable luciferase to generate luminescent signal from ATP remaining in solution following the kinase reaction. The luminescent signal is inversely correlated with the amount of kinase activity.
Materials: Poly Glu-Tyr (4:1) substrate (Sigma Cat# P-0275), ATP (Sigma Cat#A-3377, FW=551), HEPES buffer, pH 7.5, Bovine serum albumin (BSA) (Roche 92423420), MgCl2, Staurosporine (Streptomyces sp. Sigma Cat#85660-1MG), white Costar 384-well flat-bottom plate (VWR Cat#29444-088). MET kinase (see below), Kinase-Glo™ (Promega Cat#V6712).
Stock Solutions: 10 mg/ml poly Glu-Tyr in water, stored at −20° C.; 100 mM HEPES buffer, pH 7.5 (5 ml 1M stock+45 ml miliQH2O); 10 mM ATP (5.51 mg/ml in dH2O) stored at −20° C. (diluted 50 μl into total of 10 ml miliQH2O daily=50 μM ATP working stock); 1% BSA (1 g BSA in 100 ml 0.1M HEPES, pH 7.5, stored at −20° C.), 100 mM MgCl2; 200 μM Staurosporine, 2× Kinase-Glo™ reagent (made fresh or stored at −20° C.).
Standard Assay Setup for 384-well format (20 μl kinase reaction, 40 μl detection reaction): 10 mM MgCl2; 0.3 mg/ml poly Glu-Tyr; 0.1% BSA; 1 μl test compound (in DMSO); 0.4 μg/ml MET kinase; 10 μM ATP; 100 mM HEPES buffer. Positive controls contained DMSO with no test compound. Negative controls contained 10 μM staurosporine. The kinase reactions were initiated at time t=0 by the addition of ATP. Kinase reactions were incubated at 21° C. for 60 min, then 20 μl of Kinase-Glo™ reagent were added to each well to quench the kinase reaction and initiate the luminescence reaction. After a 20 min incubation at 21° C., the luminescence was detected in a plate-reading luminometer.
The cell pellets produced from half of a 12 L Sf9 insect cell culture expressing the kinase domain of human Met were resuspended in a buffer containing 50 mM Tris-HCl pH 7.7 and 250 mM NaCl, in a volume of approximately 40 ml per 1 L of original culture. One tablet of Roche Complete, EDTA-free protease inhibitor cocktail (Cat# 1873580) was added per 1 L of original culture. The suspension was stirred for 1 hour at 4° C. Debris was removed by centrifugation for 30 minutes at 39,800×g at 4° C. The supernatant was decanted into a 500 ml beaker and 10 ml of 50% slurry of Qiagen Ni-NTA Agarose (Cat# 30250) that had been pre-equilibrated in 50 mM Tris-HCl pH 7.8, 50 mM NaCl, 10% Glycerol, 10 mM Imidazole, and 10 mM Methionine, were added and stirred for 30 minutes at 4° C. The sample was then poured into a drip column at 4° C. and washed with 10 column volumes of 50 mM Tris-HCl pH 7.8, 500 mM NaCl, 10% Glycerol, 10 mM Imidazole, and 10 mM Methionine. The protein was eluted using a step gradient with two column volumes each of the same buffer containing 50 mM, 200 mM, and 500 mM Imidazole, sequentially. The 6× Histidine tag was cleaved overnight using 40 units of TEV protease (Invitrogen Cat#10127017) per 1 mg of protein while dialyzing in 50 mM Tris-HCl pH 7.8, 500 mM NaCl, 10% Glycerol, 10 mM Imidazole, and 10 mM Methionine at 4° C. The 6× Histidine tag was removed by passing the sample over a Pharmacia 5 ml IMAC column (Cat# 17-0409-01) charged with Nickel and equilibrated in 50 mM Tris-HCl pH 7.8, 500 mM NaCl, 10% Glycerol, 10 mM Imidazole, and 10 mM Methionine. The cleaved protein bound to the Nickel column at a low affinity and was eluted with a step gradient. The step gradient was run with 15% and then 80% of the B-side (A-side=50 mM Tris-HCl pH 7.8, 500 mM NaCl, 10% Glycerol, 10 mM Imidazole, and 10 mM Methionine; B-side=50 mM Tris-HCl pH 7.8, 500 mM NaCl, 10% Glycerol, 500 mM Imidazole, and 10 mM Methionine) for 4 column volumes each. […]
(In general: Kinase-Glo reads ATP consumption through a luciferase reaction.)

T1 sequence (P08581 1078-1345 limits assumed): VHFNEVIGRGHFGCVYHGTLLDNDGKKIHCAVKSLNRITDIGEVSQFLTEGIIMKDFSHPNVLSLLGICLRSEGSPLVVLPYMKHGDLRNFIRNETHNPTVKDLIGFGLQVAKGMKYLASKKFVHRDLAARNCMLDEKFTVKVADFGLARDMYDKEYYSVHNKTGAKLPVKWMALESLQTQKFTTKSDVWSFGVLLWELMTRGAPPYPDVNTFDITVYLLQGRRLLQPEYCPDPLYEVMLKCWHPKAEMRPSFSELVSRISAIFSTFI

With `COCCNc1ccc(-c2c[nH]c3ncc(-c4ccc(OC)c(OC)c4)cc23)cn1` [AE57], the IC50 is 1 to 5 µM.

Compound `COc1ccc(-c2cnc3[nH]cc(-c4ccc(N)nc4)c3c2)cc1OC` [AE56] returned a half-maximal inhibitory concentration (IC50) of under 1 µM.
